{
  "source": "patent US6525001B1",
  "about": "“Substituted pyrimidine and pyridine herbicides” (Mid-American Commercialization Corporation, priority 1997, dated 2003)",
  "type_in_all_cases": "in vivo",
  "key": {"[1]": {"tested_on": "velvetleaf (Abutilon theophrasti)", "experiment": "Test C", "set-up": "key: 0 was no effect; 100 was complete control", "conditions": "PREEMERGENCE"}, "[2]": {"tested_on": "cotton (Gossypium hirsutum)", "experiment": "Test C", "set-up": "key: 0 was no effect; 100 was complete control", "conditions": "PREEMERGENCE"}, "[3]": {"tested_on": "giant foxtail (Setaria faberii)", "experiment": "Test C", "set-up": "key: 0 was no effect; 100 was complete control", "conditions": "PREEMERGENCE"}, "[4]": {"tested_on": "barnyardgrass (Echinochloa crus-galli)", "experiment": "Test C", "conditions": "PREEMERGENCE"}, "[5]": {"tested_on": "corn (Zea mays)", "experiment": "Test C", "set-up": "key: 0 was no effect; 100 was complete control", "conditions": "PREEMERGENCE"}, "[6]": {"tested_on": "large crabgrass (Digitaria sanguinalis)", "experiment": "Test C", "set-up": "key: 0 was no effect; 100 was complete control", "conditions": "PREEMERGENCE"}, "[7]": {"tested_on": "surinam grass (Brachiaria decumbens)", "experiment": "Test C", "conditions": "PREEMERGENCE"}, "[8]": {"tested_on": "lambsquarters (Chenopodium album)", "experiment": "Test C", "set-up": "key: 0 was no effect; 100 was complete control", "conditions": "PREEMERGENCE"}, "[9]": {"tested_on": "common ragweed (Ambrosia elatior)", "experiment": "Test C", "set-up": "key: 0 was no effect; 100 was complete control", "conditions": "PREEMERGENCE"}, "[10]": {"tested_on": "field bindweed (Convolvulus arvensis)", "experiment": "Test C", "set-up": "key: 0 was no effect; 100 was complete control", "conditions": "PREEMERGENCE"}, "[11]": {"tested_on": "fall panicum (Panicum dichotomiflorum)", "experiment": "Test C", "set-up": "key: 0 was no effect; 100 was complete control", "conditions": "PREEMERGENCE"}, "[12]": {"tested_on": "itchgrass (Rottboellia exaltata)", "experiment": "Test E pre-/postemergence/post directed", "procedure,_shortened": "(§1)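 Greenhouse pots; compound in non-phytotoxic solvent with surfactant, sprayed preemergence within one day of planting, postemergence at two to four leaf stage (three to twenty cm), or post directed to plant base and soil. Visual injury rated 13 to 21 days after application, 0 (none) to 100 (complete control).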"}, "[13]": {"tested_on": "surinam grass (Brachiaria decumbens)", "experiment": "Test E pre-/postemergence/post directed", "procedure,_shortened": "as §1"}, "[14]": {"tested_on": "pitted morningglory (Ipomoea lacunosa)", "experiment": "Test E pre-/postemergence/post directed", "procedure,_shortened": "as §1"}, "[15]": {"tested_on": "common groundsel (Senecio vulgaris)", "experiment": "Test E pre-/postemergence/post directed", "conditions": "PREEMERGENCE", "procedure,_shortened": "as §1"}},
  "data": [
    {"smiles": "Cc1cnc(-n2ccc(C(F)(F)F)n2)nc1Cn1ccc(C(F)(F)F)n1", "note": "[Compound 52]", "values": [
      {"measurement": "Plant response rating, Velvetleaf", "setting": "[1]; Rate 35 g/ha", "value": 70},
      {"measurement": "Plant response rating, Velvetleaf", "setting": "[1]; Rate 70 g/ha", "value": 100},
      {"measurement": "Plant response rating, Velvetleaf", "setting": "[1]; Rate 140 g/ha", "value": 100},
      {"measurement": "Plant response rating, Cotton", "setting": "[2]; Rate 35 g/ha", "value": 0},
      {"measurement": "Plant response rating, Cotton", "setting": "[2]; Rate 70 g/ha", "value": 0},
      {"measurement": "Plant response rating, Cotton", "setting": "[2]; Rate 140 g/ha", "value": 70},
      {"measurement": "Plant response rating, Giant foxtail", "setting": "[3]; Rate 35 g/ha", "value": 70},
      {"measurement": "Plant response rating, Giant foxtail", "setting": "[3]; Rate 70 g/ha", "value": 85},
      {"measurement": "Plant response rating, Giant foxtail", "setting": "[3]; Rate 140 g/ha", "value": 100},
      {"measurement": "Plant response rating, Barnyardgrass", "setting": "[4]; Rate 35 g/ha", "value": 30},
      {"measurement": "Plant response rating, Barnyardgrass", "setting": "[4]; Rate 70 g/ha", "value": 40},
      {"measurement": "Plant response rating, Barnyardgrass", "setting": "[4]; Rate 140 g/ha", "value": 40},
      {"measurement": "Plant response rating, Corn", "setting": "[5]; Rate 35 g/ha", "value": 0},
      {"measurement": "Plant response rating, Corn", "setting": "[5]; Rate 70 g/ha", "value": 45},
      {"measurement": "Plant response rating, Corn", "setting": "[5]; Rate 140 g/ha", "value": 50},
      {"measurement": "Plant response rating, Large crabgrass", "setting": "[6]; Rate 35 g/ha", "value": 100},
      {"measurement": "Plant response rating, Large crabgrass", "setting": "[6]; Rate 70 g/ha", "value": 100},
      {"measurement": "Plant response rating, Large crabgrass", "setting": "[6]; Rate 140 g/ha", "value": 100},
      {"measurement": "Plant response rating, Surinam grass", "setting": "[7]; Rate 35 g/ha", "value": 5},
      {"measurement": "Plant response rating, Surinam grass", "setting": "[7]; Rate 70 g/ha", "value": 40},
      {"measurement": "Plant response rating, Surinam grass", "setting": "[7]; Rate 140 g/ha", "value": 70},
      {"measurement": "Plant response rating, Lambsquarters", "setting": "[8]; Rate 35 g/ha", "value": 100},
      {"measurement": "Plant response rating, Lambsquarters", "setting": "[8]; Rate 70 g/ha", "value": 100},
      {"measurement": "Plant response rating, Lambsquarters", "setting": "[8]; Rate 140 g/ha", "value": 100},
      {"measurement": "Plant response rating, Common ragweed", "setting": "[9]; Rate 35 g/ha", "value": 40},
      {"measurement": "Plant response rating, Common ragweed", "setting": "[9]; Rate 70 g/ha", "value": 60},
      {"measurement": "Plant response rating, Common ragweed", "setting": "[9]; Rate 140 g/ha", "value": 100},
      {"measurement": "Plant response rating, Field bindweed", "setting": "[10]; Rate 35 g/ha", "value": 100},
      {"measurement": "Plant response rating, Field bindweed", "setting": "[10]; Rate 70 g/ha", "value": 100},
      {"measurement": "Plant response rating, Field bindweed", "setting": "[10]; Rate 140 g/ha", "value": 100},
      {"measurement": "Plant response rating, Fall panicum", "setting": "[11]; Rate 35 g/ha", "value": 100},
      {"measurement": "Plant response rating, Fall panicum", "setting": "[11]; Rate 70 g/ha", "value": 100},
      {"measurement": "Plant response rating, Fall panicum", "setting": "[11]; Rate 140 g/ha", "value": 100},
      {"measurement": "Plant response rating, Itchgrass", "setting": "[12]; POSTEMERGENCE, Rate 125 g/ha", "value": 35},
      {"measurement": "Plant response rating, Itchgrass", "setting": "[12]; POSTEMERGENCE, Rate 250 g/ha", "value": 40},
      {"measurement": "Plant response rating, Itchgrass", "setting": "[12]; PREEMERGENCE, Rate 32 g/ha", "value": 35},
      {"measurement": "Plant response rating, Itchgrass", "setting": "[12]; PREEMERGENCE, Rate 64 g/ha", "value": 70},
      {"measurement": "Plant response rating, Itchgrass", "setting": "[12]; PREEMERGENCE, Rate 125 g/ha", "value": 80},
      {"measurement": "Plant response rating, Surinam grass", "setting": "[13]; POSTEMERGENCE, Rate 125 g/ha", "value": 75},
      {"measurement": "Plant response rating, Surinam grass", "setting": "[13]; POSTEMERGENCE, Rate 250 g/ha", "value": 75},
      {"measurement": "Plant response rating, Surinam grass", "setting": "[13]; PREEMERGENCE, Rate 32 g/ha", "value": 30},
      {"measurement": "Plant response rating, Surinam grass", "setting": "[13]; PREEMERGENCE, Rate 64 g/ha", "value": 70},
      {"measurement": "Plant response rating, Surinam grass", "setting": "[13]; PREEMERGENCE, Rate 125 g/ha", "value": 80},
      {"measurement": "Plant response rating, P. morninglory", "setting": "[14]; POSTEMERGENCE, Rate 125 g/ha", "value": 80},
      {"measurement": "Plant response rating, P. morninglory", "setting": "[14]; POSTEMERGENCE, Rate 250 g/ha", "value": 80},
      {"measurement": "Plant response rating, P. morninglory", "setting": "[14]; PREEMERGENCE, Rate 32 g/ha", "value": 50},
      {"measurement": "Plant response rating, Com. groundsel", "setting": "[15]; Rate 32 g/ha", "value": 35},
      {"measurement": "Plant response rating, Com. groundsel", "setting": "[15]; Rate 64 g/ha", "value": 98}
    ]}
  ]
}
